# Entries after “also recorded” stand apart in the source; their conditions may differ.
# B1: Gas1 protein: purified Gas1 protein overexpressed by a prokaryotic vector (pTrcHis) in bacteria (protein)
# chain: LAHGRRLICWQALLQCQGEPECSYAYNQYAEACAPVLAQHGGGDAPGAAAAAFPASAASFSSRWRCPSHCISALIQLNHTRRGPALEDCDCAQDENCKSTKRAIEPCLPRTSGGGAGGPGAGGVMGCTEARRRCDRDSRCNLALSRYLTYCGKVFNGLRCTDECRTVIEDMLAMPKAALLNDCVCDGLERPICESVKENMARLCFGAELGNGPGSSGSDGGLDDYYDEDYDDEQRTGGAGGEQPLDDDDGVPHPPRPGSGAAASGGRGDLPYGPGRRS
# Assays:
# [1] = system: cortico-hippocampal cultures; test: NMDA-induced neuronal death (excitotoxicity) in cortico-hippocampal cultures, viability by vital staining; type: cell-based, rat; parameters: survival: dose or concentration left out as unconfirmed
# Protocol: The viability of mature cortico-hippocampal cultures was analyzed 24 hr after […] NMDA exposure. Pretreatment with the different antisense oligonucleotides at the indicated concentrations was done 24 hr before the exposure to NMDA. Results are expressed as mean +/−SEM. Statistical analysis was performed by Student's t-test. *** denotes […], and other treatment groups were statistically non-significant (p<0.5).
# NMDA-induced excitotoxicity was analyzed in cortico-hippocampal cultures maintained for 12-14 DIV similar to those already described in Example 1. To apply the excitotoxic insult, the cultures were rinsed twice with Locke's solution without Mg2+ and exposed to […] NMDA (Sigma) for 5 min. in the same Locke's solution or to Locke's solution alone as control. NMDA was washed out, the Mg2+ concentration was restored by 2 changes of Locke's +Mg2+ solution, and the original medium was replaced. Phase-bright bipolar cells, taken to represent living neurons, were counted 24 hr after the NMDA exposure. Alternatively, the vital staining method (Jones and Senft, 1985 An improved method to determine cell viability by simultaneous staining with fluorescein diacetate-propidium iodide. J Histochem Cytochem 33:77-79) was used to assess the extent of neuronal death and the protection by antisense oligonucleotide treatments. Similar results were obtained using either method. […]
# [2] = system: human neuroblastoma NB69 cells; test: Staurosporine-induced neuronal death in NB69 cells, viable cell count; type: cell-based; conditions: 200 nM staurosporine, viability 24 hr after exposure; 25 μM Ag1 in NB69 wt, or stable expression in NB69-Gas1 cells
# Protocol: Columns 1 and 2. […] Columns 3 and 4. The viability was analyzed 24 hr after exposure to staurosporine (200 nM) in all the cases. Results are expressed as mean +/−SEM. Statistical analysis was performed by Student's t-test. *** denotes […], and other treatment groups were statistically non-significant (p<0.5).
# Staurosporine-induced neuronal death was assayed in human neuroblastoma NB69 cells cultured in DMEM/HAM F12 medium supplemented with 10% fetal calf serum, 2 mM glutamine and 50 μg/ml gentamycin. Wild-type or stably transfected NB69 cells (2×10^4 cells/35 mm dish) were exposed to […] staurosporine (RBI). Phase-bright cells without signs of membrane or neurite degeneration were counted 24 hr later. Experiments were done in triplicate and repeated as least five times. Stably transfected NB69 cells that overexpress Gas1 in the […] orientation (NB69-Gas1) were prepared by the calcium phosphate precipitation method followed by two weeks of geneticin selection. Control cells were prepared in parallel by transfection with pCDNA3 vector alone (NB69-vector). Expression of the constructs in the cell clones were analyzed by northern blot analysis, and the clones having the highest expression were chosen for the experiments. Stable tranfectants were kept in the presence of 0.3 mg/ml of geneticin, which was removed before plating for the experiments.
# [3] = system: Gas1 expression; test: Gas1 expression in brain after intraperitoneal kainic acid (Northern blot); type: in vivo, rat; conditions: 10 mg/kg intraperitoneal; hippocampus and olfactory cortex
# Protocol: Already detectable induced Gas1 mRNA levels after kainic acid appear 6 hours after the beginning of treatment and were maintained for at least 10 days. In order to reveal Gas1 induction and to confirm neurone localization thereof in situ hybridization after administering kainic acid was performed. […] Similar results were observed after provoking an experimental ischemic process in gerbil brain by transient occlusion of both carotids, giving rise to rapid degeneration of a numerous population of pyramidal neurons of the CA1 layer of the hippocampus. It was observed that this massive neuron death was preceded by a significant rise of Gas1 mRNA and Gas1 protein levels (evaluated by immunocytochemistry) in those neurons. Likewise, it was also observed that neuron loss in all the cerebral cortex that is produced in rats in the perinatal period after exposure to ionizing radiation is preceded by high induction of Gas1 mRNA.
# [4] = Channel formation of purified Gas1 protein in artificial bilayers; type: biochemical; conditions: purified protein expressed in bacteria (pTrcHis)
# From the text: Initially, Gas1 expression has been related to the G0 phase of cell cycle arrest in rat fibroblasts deprived of serum (Del Sal et al., 1992). […] Up to now it had been described that Gas1 protein was a cell membrane protein and as of its amino acid sequence the presence of two transmembrane segments had been proposed and a hypothetical RGD domain that may interact with integrin, the only domain described that relates its structure to its arrest function of the cell cycle (Schneider et al.). The present inventors have succeeded in overexpressing the Gas1 protein by means of a prokaryotic vector (pTrcHis) in bacteria for subsequent purification in sufficient amounts to carry out protein studies. […] Aside from the already described location of this protein in the cell membrane we have located the presence of Gas1 in the perinuclear and mitochondrial membrane. It must be pointed out that Bcl-2 and Bax, proteins related to the […], are also located in the mitochondrial membrane and are capable of forming ionic channels. This common location of these proteins makes compatible a possible functional interaction of Gas1 with Bax type proapoptotic proteins and Bcl-2 and Bcl XL antiapoptotic proteins.
molecule,measurement,setting,value
"5′-TCCTCATCCATCCAT-3′ (DNA, linkages s2 o10 s2 (s phosphorothioate, o phosphodiester), methylation of C not given here) [AG1, 15-mer Gas1 antisense oligonucleotide spanning the start site of translation, protected at each end by two phosphorothioate groups]",effect on NMDA-induced neuronal death,"[1]; 25 μM Ag1, pretreatment 24 hr before 500 mM NMDA, viability 24 hr after exposure",blocks NMDA-induced neuronal death
same,survival,"[1]; NMDA induced neuron death in primary neuron cultures, FIG. 2a",~100%
same,effect on staurosporine-induced reduction in survival,[2],prevents the reduction in survival; also recorded: total blocking
C=C(C)[C@H]1CN[C@H](C(=O)O)[C@H]1CC(=O)O [kainic acid],induction of Gas1 expression,[3],strong induction
B1,channel formation,[4],capable of inserting in and forming cationic channels
